In PubChem BioAssay (NCI) one finds TGI and GI50 data, which are given here for 16 molecules.

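Assay format: 96-well plates, 48-hour exposure. GI50: concentration for 50% inhibition of growth. TGI is the concentration that stops growth completely.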

Some test systems named below: SNB-19 CNS; SK-MEL-2 melanoma; NCI-H226 lung; SNB-75 CNS; SK-MEL-28 melanoma; IGROV1 ovarian; SK-OV-3 ovarian; M14 melanoma; DU-145 prostate; OVCAR-3 ovarian.
Holding throughout (assay): NCI tumour cell line growth inhibition, 48 h

`O=C(/C=C/c1cccc(Br)c1)c1cccs1`: the TGI in the test on SNB-19 CNS is 28.3 µM; with SK-MEL-2 melanoma it was 44.1 µM; in the test with NCI-H226 lung, 32.7 µM; in the test with SNB-75 CNS, 28.2 µM; in the test on SK-MEL-28 melanoma it was 32.9 µM; with IGROV1 ovarian, 36.6 µM. For the same molecule, the values for the TGI with SK-OV-3 ovarian and with M14 melanoma were 46.8 µM and 51.1 µM, respectively.
On to `CCCCCC(=O)N[C@@H](c1ccccc1)C(O)C(=O)OC1C[C@@]2(O)C(OC(=O)c3ccccc3)C3[C@](C)(C(=O)[C@H](O)C(=C1C)C2(C)C)C(OC1OCC(O)C(O)C1O)C[C@H]1OC[C@@]31OC(C)=O` (stereo partly drawn), for which the TGI was over 100 µM with SNB-19 CNS; over 100 µM with NCI-H226 lung; 4.52 µM in the test with SNB-75 CNS; over 100 µM in the test with SK-MEL-28 melanoma; over 100 µM in the test with IGROV1 ovarian; 13.4 µM in the test on DU-145 prostate. Besides, the TGI in the test on SK-OV-3 ovarian was 57.2 µM; with OVCAR-3 ovarian, 5.2 µM; in the test on M14 melanoma it was over 88.1 µM.
For `COc1ccc(N2C(=Nc3ccccc3)SC(=N/S(=O)(=O)c3ccccc3)/C2=N\S(=O)(=O)c2ccccc2)cc1`, the TGI was 57.5 µM in the test with SNB-19 CNS; 56.8 µM in the test on NCI-H226 lung; 55 µM in the test on SNB-75 CNS; 33.9 µM with SK-MEL-28 melanoma; 27.3 µM in the test with IGROV1 ovarian; over 100 µM in the test with M14 melanoma.
As for `CC(C)[C@@H]1CC[C@@H](C)C[C@H]1OC(=O)/C=C1/C2C=CC(O2)C1C(=O)O[C@@H]1C[C@H](C)CC[C@H]1C(C)C` (stereo partly drawn), the TGI in the test with SNB-19 CNS, with NCI-H226 lung, in the test on SNB-75 CNS, in the test with SK-MEL-28 melanoma, in the test on IGROV1 ovarian and in the test with DU-145 prostate was over 100 µM in each case. Also, the TGI in the test on SK-OV-3 ovarian, in the test on OVCAR-3 ovarian and with M14 melanoma was over 100 µM in each case.
Turning to `CCOc1ccc(/C=C(\Cl)c2ccc(OC)c(OC)c2)cc1`, the TGI with SNB-19 CNS was over 100 µM; in the test on NCI-H226 lung, 74.8 µM; with SNB-75 CNS, over 100 µM; with SK-MEL-28 melanoma, over 100 µM; in the test with IGROV1 ovarian, over 100 µM; in the test with SK-OV-3 ovarian, over 100 µM. The TGI in the test on M14 melanoma worked out at 89.6 µM.
Take `O=c1c(SSc2coc3cc(F)ccc3c2=O)coc2cc(F)ccc12`: the TGI in the test with SNB-19 CNS is over 100 µM; with NCI-H226 lung, over 100 µM; in the test with SNB-75 CNS, 33.6 µM; in the test with SK-MEL-28 melanoma, 30.4 µM; in the test on IGROV1 ovarian it was 20.2 µM; in the test with DU-145 prostate, over 100 µM. Further, in the test with OVCAR-3 ovarian, the TGI was over 100 µM.
On to `O=C(Nc1nc2ccccc2n1Cc1ccccc1)NC12CC3CC(CC(C3)C1)C2`, for which the TGI in the test on SNB-19 CNS was over 100 µM; in the test with SK-MEL-2 melanoma, over 100 µM; in the test with NCI-H226 lung it was over 100 µM; in the test on SNB-75 CNS, 49.8 µM; in the test with SK-MEL-28 melanoma, over 100 µM; with IGROV1 ovarian, over 100 µM. The TGI with SK-OV-3 ovarian, with OVCAR-3 ovarian and with M14 melanoma was over 100 µM each time.
In the case of `COc1cc2c(c(OC)c1OC)-c1ccc(SC)c(=O)cc1[C@@H](OC(C)=O)CC2`, the TGI was over 100 µM in the test on SNB-19 CNS; over 82.1 µM with SNB-75 CNS; over 100 µM in the test with SK-MEL-28 melanoma; over 100 µM with DU-145 prostate; over 100 µM in the test on M14 melanoma.
Consider `O=C(O)CCCCCOc1cccnc1/C=N/NC1=NCCN1`, for which the TGI was over 100 µM in the test on SNB-19 CNS; over 100 µM in the test on SK-MEL-2 melanoma; over 100 µM in the test on NCI-H226 lung; 91.2 µM with SNB-75 CNS; over 100 µM in the test with SK-MEL-28 melanoma; over 100 µM in the test on IGROV1 ovarian. In addition, the TGI in the test with SK-OV-3 ovarian, in the test on OVCAR-3 ovarian and with M14 melanoma was over 100 µM each time.
As for `Cc1ccc(S(=O)(=O)NC(=O)NC23CC4CC(CC(F)(C4)C2)C3)cc1`, the TGI in the test with SNB-19 CNS, in the test with SK-MEL-2 melanoma, in the test on SNB-75 CNS, with SK-MEL-28 melanoma, in the test with IGROV1 ovarian and with SK-OV-3 ovarian was over 100 µM each time. In addition, the TGI with OVCAR-3 ovarian and with M14 melanoma was over 100 µM each time.
For `c1ccc(C2=Nc3nc4ccccc4n3C(c3ccccc3)C2)cc1` (stereo not drawn), the TGI with SNB-19 CNS, in the test with SK-MEL-2 melanoma, with NCI-H226 lung, in the test with SNB-75 CNS, in the test on SK-MEL-28 melanoma and with IGROV1 ovarian was over 100 µM throughout. Besides, the TGI in the test with SK-OV-3 ovarian, in the test on OVCAR-3 ovarian and with M14 melanoma was over 100 µM throughout.
Regarding `O=C(N=C1SCCN1C(=O)C(C(F)(F)F)C(F)(F)F)C(C(F)(F)F)C(F)(F)F`, the TGI in the test with SNB-19 CNS, in the test with SK-MEL-2 melanoma, in the test on NCI-H226 lung, with SK-MEL-28 melanoma, in the test with IGROV1 ovarian and in the test with SK-OV-3 ovarian was over 100 µM in each case. Also, the TGI in the test with OVCAR-3 ovarian and with M14 melanoma was over 100 µM in each case.
Turning to `CC12CCC(C(=O)O1)C(C)(C)O2` (stereo not drawn), the TGI with SNB-19 CNS, in the test on SK-MEL-2 melanoma, in the test with NCI-H226 lung, in the test on SNB-75 CNS, in the test with SK-MEL-28 melanoma and in the test on IGROV1 ovarian was over 100 µM each time. For the same molecule, the TGI with SK-OV-3 ovarian, in the test on OVCAR-3 ovarian and in the test on M14 melanoma was over 100 µM throughout.
Take `CC1(C)N=C(C(N)=O)c2ncn(CCO)c2N1`: the TGI in the test on SNB-19 CNS, with NCI-H226 lung, in the test on SK-MEL-28 melanoma, with IGROV1 ovarian, in the test with DU-145 prostate and with SK-OV-3 ovarian was over 100 µM throughout. In addition, the TGI in the test on OVCAR-3 ovarian and in the test with M14 melanoma was over 100 µM in each case.
For the molecule `N=c1nnc(=O)c2c(s1)-n1ncc(C(=O)O)c1NN2`, the TGI in the test with SNB-19 CNS, in the test on SNB-75 CNS, in the test on SK-MEL-28 melanoma, with IGROV1 ovarian, with SK-OV-3 ovarian and in the test with OVCAR-3 ovarian was over 100 µM in each case. The same molecule gave a TGI in the test on M14 melanoma of over 100 µM.
As to `CCOC(=O)c1c(Br)c(-c2ccc(Br)cc2)c(Br)n1C`, the TGI is over 100 µM with SNB-19 CNS; 49.4 µM in the test with NCI-H226 lung; 49.7 µM in the test with SNB-75 CNS; 51.8 µM in the test on SK-MEL-28 melanoma; over 100 µM in the test on IGROV1 ovarian; over 100 µM with DU-145 prostate. For the same molecule, the TGI was over 100 µM in the test with SK-OV-3 ovarian, 38.7 µM with OVCAR-3 ovarian and 63.3 µM in the test with M14 melanoma. Moreover, in the test with SNB-75 CNS, the GI50 is 5.3 µM.
